Measured values published in patent publication US9242987B2, “Heterocyclyl pyrazolopyrimidine analogues as JAK inhibitors” (Cellzome Limited, priority 2009, dated 2016).

Experiments:
JAK2 = target: T1, JAK2 (Homo sapiens, UniProt O60674); experiment: Kinobeads assay, JAK2; assay type: binding; conditions: mixed Molt4/Ramos cell lysate, dot blot detection
T1 construct: endogenous in cells; host or cells: Mixed Molt4/Ramos lysate (1:2)
Method in brief: (§1)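 Competition pulldown: compound dilution series incubated 3 h in cold room with immobilized aminopyrido-pyrimidine beads and mixed Molt4/Ramos lysate (1:2, 10 mg/mL protein) in DP buffer pH 7.4 with NP40. Bead-bound JAK2/JAK3 eluted, quantified by antibody dot blot with infrared detection; IC50 from dose-response curves.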

JAK3 = target: T2, JAK3 (Homo sapiens, UniProt P52333); experiment: Kinobeads assay, JAK3; assay type: binding; conditions: mixed Molt4/Ramos cell lysate, dot blot detection
T2 construct: endogenous in cells; host or cells: Mixed Molt4/Ramos lysate (1:2)
T2 sequence (P52333 1-1124): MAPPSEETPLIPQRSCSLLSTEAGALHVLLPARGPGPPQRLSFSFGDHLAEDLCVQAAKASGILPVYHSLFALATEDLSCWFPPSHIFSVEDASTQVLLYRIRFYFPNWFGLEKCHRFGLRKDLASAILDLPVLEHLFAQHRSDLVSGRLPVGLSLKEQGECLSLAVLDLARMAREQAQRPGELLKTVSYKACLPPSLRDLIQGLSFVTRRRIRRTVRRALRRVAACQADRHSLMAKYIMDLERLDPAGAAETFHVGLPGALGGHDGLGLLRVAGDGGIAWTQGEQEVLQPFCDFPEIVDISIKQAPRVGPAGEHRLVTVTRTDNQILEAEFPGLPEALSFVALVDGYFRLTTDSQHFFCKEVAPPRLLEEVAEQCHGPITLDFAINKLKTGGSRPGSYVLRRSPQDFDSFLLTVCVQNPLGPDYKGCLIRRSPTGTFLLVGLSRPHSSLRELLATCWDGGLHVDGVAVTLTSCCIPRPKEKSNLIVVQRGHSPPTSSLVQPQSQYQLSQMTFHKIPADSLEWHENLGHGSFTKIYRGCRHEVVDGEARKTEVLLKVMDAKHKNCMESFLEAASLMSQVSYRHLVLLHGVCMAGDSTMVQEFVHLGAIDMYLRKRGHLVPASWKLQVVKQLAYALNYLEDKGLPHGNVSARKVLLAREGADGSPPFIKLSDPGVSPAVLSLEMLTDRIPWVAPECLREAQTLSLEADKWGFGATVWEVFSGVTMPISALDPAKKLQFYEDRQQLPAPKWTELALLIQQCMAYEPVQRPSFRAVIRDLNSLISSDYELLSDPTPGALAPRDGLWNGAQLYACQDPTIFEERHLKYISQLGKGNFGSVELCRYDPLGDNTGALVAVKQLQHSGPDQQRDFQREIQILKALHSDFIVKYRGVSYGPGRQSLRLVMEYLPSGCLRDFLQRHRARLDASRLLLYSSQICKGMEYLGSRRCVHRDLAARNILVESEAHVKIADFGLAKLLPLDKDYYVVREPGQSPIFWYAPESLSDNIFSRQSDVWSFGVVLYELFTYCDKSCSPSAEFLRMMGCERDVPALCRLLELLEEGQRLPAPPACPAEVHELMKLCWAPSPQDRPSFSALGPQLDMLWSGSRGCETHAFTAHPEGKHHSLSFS
Method in brief: as §1

T1 sequence (O60674 whole entry): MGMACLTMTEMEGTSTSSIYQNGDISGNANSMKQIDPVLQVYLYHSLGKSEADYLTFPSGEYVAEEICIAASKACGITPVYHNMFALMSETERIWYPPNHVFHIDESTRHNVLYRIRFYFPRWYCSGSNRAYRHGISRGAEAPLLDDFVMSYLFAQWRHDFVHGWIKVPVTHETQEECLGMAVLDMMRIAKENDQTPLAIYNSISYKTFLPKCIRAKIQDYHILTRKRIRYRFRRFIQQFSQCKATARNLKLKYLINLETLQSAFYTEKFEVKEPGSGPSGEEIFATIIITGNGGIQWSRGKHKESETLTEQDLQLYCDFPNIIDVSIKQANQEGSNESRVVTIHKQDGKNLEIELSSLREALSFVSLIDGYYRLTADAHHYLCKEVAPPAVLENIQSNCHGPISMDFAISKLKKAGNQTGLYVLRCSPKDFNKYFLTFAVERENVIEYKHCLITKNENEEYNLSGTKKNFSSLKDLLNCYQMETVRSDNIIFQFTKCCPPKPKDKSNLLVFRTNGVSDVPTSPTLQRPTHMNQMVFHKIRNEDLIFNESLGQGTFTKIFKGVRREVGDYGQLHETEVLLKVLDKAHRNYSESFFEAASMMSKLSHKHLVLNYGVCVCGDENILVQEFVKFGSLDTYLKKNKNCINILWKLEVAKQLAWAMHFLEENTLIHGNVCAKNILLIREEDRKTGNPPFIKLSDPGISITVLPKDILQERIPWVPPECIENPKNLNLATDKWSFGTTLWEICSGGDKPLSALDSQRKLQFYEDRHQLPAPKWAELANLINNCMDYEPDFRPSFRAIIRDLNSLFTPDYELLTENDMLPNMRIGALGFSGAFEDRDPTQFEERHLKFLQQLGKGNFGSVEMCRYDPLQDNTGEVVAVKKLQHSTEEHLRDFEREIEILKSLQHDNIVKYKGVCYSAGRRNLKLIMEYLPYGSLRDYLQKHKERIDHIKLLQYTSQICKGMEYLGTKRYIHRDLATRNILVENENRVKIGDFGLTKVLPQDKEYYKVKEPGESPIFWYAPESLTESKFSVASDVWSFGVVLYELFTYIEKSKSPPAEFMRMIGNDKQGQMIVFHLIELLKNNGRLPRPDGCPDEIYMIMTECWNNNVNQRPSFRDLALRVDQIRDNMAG

Row | SMILES | IC50 (JAK2) [µM] | IC50 (JAK3) [µM]
1 | Cc1ccccc1Cn1ncc2cnc(Nc3cnn(C)c3)nc21 [Example 84, N-(1-Methyl-1H-pyrazol-4-yl)-1-(2-methylbenzyl)-1H-pyrazolo[3,4-d]pyrimidin-6-amine] | 1 to 10 | < 0.1
2 | Cn1cc(Nc2ncc3cnn(Cc4ccccc4OC(F)(F)F)c3n2)cn1 [Example 85, N-(1-Methyl-1H-pyrazol-4-yl)-1-(2-(trifluoromethoxy)benzyl)-1H-pyrazolo[3,4-d]pyrimidin-6-amine] | 1 to 10 | < 0.1
3 | Cn1cc(Nc2ncc3cnn(Cc4cccc(OC(F)(F)F)c4)c3n2)cn1 [Example 86, N-(1-Methyl-1H-pyrazol-4-yl)-1-(3-(trifluoromethoxy)benzyl)-1H-pyrazolo[3,4-d]pyrimidin-6-amine] | ≥ 10 | 0.1 to 1
4 | COc1ccccc1Cn1ncc2cnc(Nc3cnn(C)c3)nc21 [Example 87, 1-(2-Methoxybenzyl)-N-(1-methyl-1H-pyrazol-4-yl)-1H-pyrazolo[3,4-d]pyrimidin-6-amine] | 1 to 10 | < 0.1
5 | Fc1ccccc1Cn1ncc2cnc(Nc3cn[nH]c3)nc21 [Example 88, 1-(2-Fluorobenzyl)-N-(1H-pyrazol-4-yl)-1H-pyrazolo[3,4-d]pyrimidin-6-amine] | 1 to 10 | < 0.1
6 | CC(O)Cn1cc(Nc2ncc3cnn(Cc4ccccc4F)c3n2)cn1 (stereo not drawn) [Example 89, 1-(4-((1-(2-Fluorobenzyl)-1H-pyrazolo[3,4-d]pyrimidin-6-yl)amino)-1H-pyrazol-1-yl)propan-2-ol] | 0.1 to 1 | < 0.1
7 | COc1cccc(F)c1Cn1ncc2cnc(Nc3cnn(C)c3)nc21 [Example 90, 1-(2-Fluoro-6-methoxybenzyl)-N-(1-methyl-1H-pyrazol-4-yl)-1H-pyrazolo[3,4-d]pyrimidin-6-amine] | 0.1 to 1 | < 0.1
8 | COc1ccc(F)cc1Cn1ncc2cnc(Nc3cnn(C)c3)nc21 [Example 91, 1-(5-Fluoro-2-methoxybenzyl)-N-(1-methyl-1H-pyrazol-4-yl)-1H-pyrazolo[3,4-d]pyrimidin-6-amine] | 0.1 to 1 | < 0.1
9 | Cn1cc(Nc2ncc3cnn(Cc4ccccc4CO)c3n2)cn1 [Example 92, (2-((6-((1-Methyl-1H-pyrazol-4-yl)amino)-1H-pyrazolo[3,4-d]pyrimidin-1-yl)methyl)phenyl)methanol] | 1 to 10 | < 0.1
10 | COc1cccc(Cn2ncc3cnc(Nc4cnn(C)c4)nc32)c1F [Example 93, 1-(2-Fluoro-3-methoxybenzyl)-N-(1-methyl-1H-pyrazol-4-yl)-1H-pyrazolo[3,4-d]pyrimidin-6-amine] | ≥ 10 | 0.1 to 1
11 | COc1ccc(F)c(Cn2ncc3cnc(Nc4cnn(C)c4)nc32)c1 [Example 94, 1-(2-Fluoro-5-methoxybenzyl)-N-(1-methyl-1H-pyrazol-4-yl)-1H-pyrazolo[3,4-d]pyrimidin-6-amine] | 1 to 10 | < 0.1
12 | CC(=O)n1cc(Nc2ncc3cnn(Cc4ccccc4F)c3n2)cn1 [Example 95, 1-(4-((1-(2-Fluorobenzyl)-1H-pyrazolo[3,4-d]pyrimidin-6-yl)amino)-1H-pyrazol-1-yl)ethanone] | 1 to 10 | < 0.1
13 | CS(=O)(=O)n1cc(Nc2ncc3cnn(Cc4ccccc4F)c3n2)cn1 [Example 96, 1-(2-Fluorobenzyl)-N-(1-(methylsulfonyl)-1H-pyrazol-4-yl)-1H-pyrazolo[3,4-d]pyrimidin-6-amine] | ≥ 10 | 0.1 to 1
14 | Fc1ccccc1Cn1ncc2cnc(Nc3c[nH]nc3Cl)nc21 [Example 97, N-(3-Chloro-1H-pyrazol-4-yl)-1-(2-fluorobenzyl)-1H-pyrazolo[3,4-d]pyrimidin-6-amine] | ≥ 10 | 0.1 to 1
15 | Cn1cc(Nc2ncc3cnn(Cc4c(F)ccc(F)c4F)c3n2)cn1 [Example 98, N-(1-Methyl-1H-pyrazol-4-yl)-1-(2,3,6-trifluorobenzyl)-1H-pyrazolo[3,4-d]pyrimidin-6-amine] | 0.1 to 1 | < 0.1
16 | Cn1cc(Nc2ncc3cnn(Cc4ccc(F)cc4)c3n2)cn1 [Example 99, 1-(4-Fluorobenzyl)-N-(1-methyl-1H-pyrazol-4-yl)-1H-pyrazolo[3,4-d]pyrimidin-6-amine] | ≥ 10 | 0.1 to 1
17 | CC(C)c1cccc(Cn2ncc3cnc(Nc4cnn(C)c4)nc32)c1 [Example 100, 1-(3-Isopropylbenzyl)-N-(1-methyl-1H-pyrazol-4-yl)-1H-pyrazolo[3,4-d]pyrimidin-6-amine] | ≥ 10 | 0.1 to 1
18 | CC(C)c1ccccc1Cn1ncc2cnc(Nc3cnn(C)c3)nc21 [Example 101, 1-(2-Isopropylbenzyl)-N-(1-methyl-1H-pyrazol-4-yl)-1H-pyrazolo[3,4-d]pyrimidin-6-amine] | 1 to 10 | 0.1 to 1
19 | COCCOc1ccccc1Cn1ncc2cnc(Nc3cnn(C)c3)nc21 [Example 102, 1-(2-(2-Methoxyethoxy)benzyl)-N-(1-methyl-1H-pyrazol-4-yl)-1H-pyrazolo[3,4-d]pyrimidin-6-amine] | 1 to 10 | 0.1 to 1
20 | NC(=O)n1cc(Nc2ncc3cnn(Cc4ccccc4F)c3n2)cn1 [Example 103, 4-((1-(2-Fluorobenzyl)-1H-pyrazolo[3,4-d]pyrimidin-6-yl)amino)-1H-pyrazole-1-carboxamide] | 1 to 10 | 0.1 to 1
21 | COc1cc(F)cc(Cn2ncc3cnc(Nc4cnn(C)c4)nc32)c1 [Example 104, 1-(3-Fluoro-5-methoxybenzyl)-N-(1-methyl-1H-pyrazol-4-yl)-1H-pyrazolo[3,4-d]pyrimidin-6-amine] | 0.1 to 1 | < 0.1
22 | COc1nn(C)cc1Nc1ncc2cnn(Cc3ccccc3)c2n1 [Example 105, 1-Benzyl-N-(3-methoxy-1-methyl-1H-pyrazol-4-yl)-1H-pyrazolo[3,4-d]pyrimidin-6-amine] | ≥ 10 | < 0.1
23 | COc1nn(CCO)cc1Nc1ncc2cnn(Cc3ccccc3)c2n1 [Example 106, 2-(4-((1-Benzyl-1H-pyrazolo[3,4-d]pyrimidin-6-yl)amino)-3-methoxy-1H-pyrazol-1-yl)ethanol] | 1 to 10 | < 0.1
24 | Cn1cc(Nc2ncc3cnn(Cc4cccc(C#N)c4F)c3n2)cn1 [Example 107, 2-Fluoro-3-((6-((1-methyl-1H-pyrazol-4-yl)amino)-1H-pyrazolo[3,4-d]pyrimidin-1-yl)methyl)benzonitrile] | 1 to 10 | < 0.1
25 | Cn1cc(Nc2ncc3cnn(Cc4cccc(F)c4C#N)c3n2)cn1 [Example 108, 2-Fluoro-6-((6-((1-methyl-1H-pyrazol-4-yl)amino)-1H-pyrazolo[3,4-d]pyrimidin-1-yl)methyl)benzonitrile] | 1 to 10 | 0.1 to 1
26 | Cc1c(Nc2ncc3cnn(Cc4ccccc4)c3n2)cnn1C [Example 109, 1-Benzyl-N-(1,5-dimethyl-1H-pyrazol-4-yl)-1H-pyrazolo[3,4-d]pyrimidin-6-amine] | ≥ 10 | 0.1 to 1
27 | Cc1nn(C)cc1Nc1ncc2cnn(Cc3ccccc3)c2n1 [Example 110, 1-Benzyl-N-(1,3-dimethyl-1H-pyrazol-4-yl)-1H-pyrazolo[3,4-d]pyrimidin-6-amine] | ≥ 10 | 0.1 to 1
28 | Cn1cc(Nc2ncc3cnn(Cc4ccccc4C4CC4)c3n2)cn1 [Example 111, 1-(2-Cyclopropylbenzyl)-N-(1-methyl-1H-pyrazol-4-yl)-1H-pyrazolo[3,4-d]pyrimidin-6-amine] | 1 to 10 | < 0.1
29 | CC(C)(O)Cn1cc(Nc2ncc3cnn(Cc4ccccc4F)c3n2)cn1 [Example 112, 1-(4-((1-(2-Fluorobenzyl)-1H-pyrazolo[3,4-d]pyrimidin-6-yl)amino)-1H-pyrazol-1-yl)-2-methylpropan-2-ol] | 1 to 10 | < 0.1
30 | Cc1nn(CCO)cc1Nc1ncc2cnn(Cc3ccccc3)c2n1 [Example 113, 2-(4-((1-Benzyl-1H-pyrazolo[3,4-d]pyrimidin-6-yl)amino)-3-methyl-1H-pyrazol-1-yl)ethanol] | 1 to 10 | < 0.1
